Data: publication PMC7600309, “Completing the Enalaprilat Excretion Pathway—Renal Handling by the Proximal Tubule” (Pharmaceutics, 2020)
Where a name gives a salt, the structure may show the parent alone. Non-standard residues stand in square brackets, D forms with d. Residues, ends and D or L forms follow the SMILES beside them. Sar = CNCC(=O)O

Tests used:
URAT1 = target: T1, URAT1 (Homo sapiens, UniProt Q96S37); experiment: model substrate uptake vs control cells; type: cell-based
T1 construct: gene SLC22A12; NM_144585.3, baculovirus-transduced HEK293 cells
T1 sequence (Q96S37 1-553): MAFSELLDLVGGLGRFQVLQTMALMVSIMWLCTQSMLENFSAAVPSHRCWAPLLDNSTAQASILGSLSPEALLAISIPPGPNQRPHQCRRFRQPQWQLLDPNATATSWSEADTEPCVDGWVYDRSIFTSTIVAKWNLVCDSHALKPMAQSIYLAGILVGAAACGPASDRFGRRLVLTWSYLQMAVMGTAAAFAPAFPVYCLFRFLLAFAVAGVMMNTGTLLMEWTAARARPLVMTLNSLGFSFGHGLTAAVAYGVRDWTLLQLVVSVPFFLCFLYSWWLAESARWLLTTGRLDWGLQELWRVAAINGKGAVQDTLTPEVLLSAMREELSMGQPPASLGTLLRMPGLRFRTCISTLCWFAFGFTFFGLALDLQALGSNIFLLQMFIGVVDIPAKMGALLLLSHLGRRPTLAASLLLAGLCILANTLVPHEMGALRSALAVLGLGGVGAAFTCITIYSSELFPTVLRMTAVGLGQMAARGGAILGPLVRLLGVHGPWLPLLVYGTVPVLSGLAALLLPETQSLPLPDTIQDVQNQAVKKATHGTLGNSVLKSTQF

OAT3 [1] = target: T2, OAT3 (Homo sapiens, UniProt Q8TCC7); experiment: radiolabelled model substrate uptake ([…]); type: cell-based
T2 construct: gene SLC22A8; NM_004254.3, baculovirus-transduced HEK293 cells
T2 sequence (Q8TCC7 1-542): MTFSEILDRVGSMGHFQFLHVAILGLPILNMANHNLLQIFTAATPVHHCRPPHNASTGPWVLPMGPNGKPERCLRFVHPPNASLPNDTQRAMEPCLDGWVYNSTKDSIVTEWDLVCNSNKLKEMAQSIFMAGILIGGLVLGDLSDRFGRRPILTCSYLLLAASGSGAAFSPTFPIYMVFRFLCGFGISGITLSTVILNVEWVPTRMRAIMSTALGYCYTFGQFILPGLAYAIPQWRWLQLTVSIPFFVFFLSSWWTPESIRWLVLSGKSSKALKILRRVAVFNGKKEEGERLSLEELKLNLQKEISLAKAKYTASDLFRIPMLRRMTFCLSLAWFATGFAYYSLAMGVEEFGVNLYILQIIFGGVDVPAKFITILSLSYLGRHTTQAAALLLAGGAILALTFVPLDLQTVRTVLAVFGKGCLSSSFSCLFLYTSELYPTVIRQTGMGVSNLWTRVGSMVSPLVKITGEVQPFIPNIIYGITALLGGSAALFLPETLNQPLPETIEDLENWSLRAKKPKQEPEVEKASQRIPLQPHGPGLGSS

PEPT1 = target: T3, PEPT1 (Homo sapiens, UniProt P46059); experiment: radiolabelled model substrate uptake vs control cells; type: cell-based
T3 construct: gene SLC15A1; NM_005073.3, baculovirus-transduced HEK293 cells
T3 sequence (P46059 1-708): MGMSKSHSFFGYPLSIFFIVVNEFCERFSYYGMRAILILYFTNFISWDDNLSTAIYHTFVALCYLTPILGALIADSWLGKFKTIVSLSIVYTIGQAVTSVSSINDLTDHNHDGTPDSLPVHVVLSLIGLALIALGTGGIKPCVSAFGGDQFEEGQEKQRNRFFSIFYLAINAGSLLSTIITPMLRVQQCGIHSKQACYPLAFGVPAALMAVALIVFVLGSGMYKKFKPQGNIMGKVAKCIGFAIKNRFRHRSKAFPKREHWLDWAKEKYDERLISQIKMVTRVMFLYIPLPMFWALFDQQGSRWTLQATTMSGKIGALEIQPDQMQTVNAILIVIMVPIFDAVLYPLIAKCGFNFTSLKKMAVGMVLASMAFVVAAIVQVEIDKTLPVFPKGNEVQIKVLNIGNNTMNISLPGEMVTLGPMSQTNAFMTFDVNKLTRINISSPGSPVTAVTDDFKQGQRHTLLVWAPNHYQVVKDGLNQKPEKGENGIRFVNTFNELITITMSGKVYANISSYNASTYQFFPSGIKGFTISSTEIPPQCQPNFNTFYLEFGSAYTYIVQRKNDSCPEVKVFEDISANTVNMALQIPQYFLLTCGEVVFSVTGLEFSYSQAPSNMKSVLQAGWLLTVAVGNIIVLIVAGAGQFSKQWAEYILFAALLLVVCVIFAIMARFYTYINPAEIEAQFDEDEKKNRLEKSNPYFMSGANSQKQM

PEPT2 = target: T4, PEPT2 (Homo sapiens, UniProt Q16348); experiment: as above; type: cell-based
T4 construct: gene SLC15A2; NM_021082.3, baculovirus-transduced HEK293 cells
T4 sequence (Q16348 1-729): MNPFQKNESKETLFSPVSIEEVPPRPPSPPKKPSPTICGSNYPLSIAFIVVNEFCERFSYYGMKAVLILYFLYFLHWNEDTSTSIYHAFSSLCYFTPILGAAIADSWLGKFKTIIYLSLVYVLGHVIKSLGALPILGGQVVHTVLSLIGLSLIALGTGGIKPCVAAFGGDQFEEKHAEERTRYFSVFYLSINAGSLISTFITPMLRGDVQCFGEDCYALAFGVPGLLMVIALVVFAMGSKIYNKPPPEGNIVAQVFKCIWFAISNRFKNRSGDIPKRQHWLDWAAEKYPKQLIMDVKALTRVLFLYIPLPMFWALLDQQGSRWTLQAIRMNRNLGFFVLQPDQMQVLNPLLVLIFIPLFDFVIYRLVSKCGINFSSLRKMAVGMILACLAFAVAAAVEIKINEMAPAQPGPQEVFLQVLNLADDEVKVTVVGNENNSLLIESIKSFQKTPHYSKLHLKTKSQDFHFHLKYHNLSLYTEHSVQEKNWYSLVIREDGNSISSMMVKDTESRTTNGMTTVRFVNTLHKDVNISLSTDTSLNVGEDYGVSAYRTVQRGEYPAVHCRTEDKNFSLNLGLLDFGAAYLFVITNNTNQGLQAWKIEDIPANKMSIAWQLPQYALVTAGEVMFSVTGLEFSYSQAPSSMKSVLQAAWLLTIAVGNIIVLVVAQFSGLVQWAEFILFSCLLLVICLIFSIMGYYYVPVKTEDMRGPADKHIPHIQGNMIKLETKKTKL

OCTN1 = target: T5, OCTN1 (Homo sapiens, UniProt Q9H015); experiment: as above; type: cell-based
T5 construct: gene SLC22A4; NM_003059.2, baculovirus-transduced HEK293 cells
T5 sequence (Q9H015 1-551): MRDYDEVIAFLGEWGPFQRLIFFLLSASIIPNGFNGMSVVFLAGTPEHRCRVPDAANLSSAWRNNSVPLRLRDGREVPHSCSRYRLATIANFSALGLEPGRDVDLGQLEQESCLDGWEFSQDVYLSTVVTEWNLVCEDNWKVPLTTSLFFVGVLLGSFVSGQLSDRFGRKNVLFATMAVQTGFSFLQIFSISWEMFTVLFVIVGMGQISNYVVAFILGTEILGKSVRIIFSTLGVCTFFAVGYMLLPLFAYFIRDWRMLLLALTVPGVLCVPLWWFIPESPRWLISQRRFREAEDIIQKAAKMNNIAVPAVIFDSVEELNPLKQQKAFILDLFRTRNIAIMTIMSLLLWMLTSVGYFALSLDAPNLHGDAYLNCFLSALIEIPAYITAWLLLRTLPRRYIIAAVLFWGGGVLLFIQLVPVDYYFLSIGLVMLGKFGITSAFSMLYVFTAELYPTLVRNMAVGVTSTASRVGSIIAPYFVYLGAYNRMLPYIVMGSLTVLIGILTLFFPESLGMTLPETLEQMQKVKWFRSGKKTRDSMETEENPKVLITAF

OCTN2 = target: T6, OCTN2 (Homo sapiens, UniProt O76082); experiment: as above; type: cell-based
T6 construct: gene SLC22A5; NM_003060.3, baculovirus-transduced HEK293 cells
T6 sequence (O76082 1-557): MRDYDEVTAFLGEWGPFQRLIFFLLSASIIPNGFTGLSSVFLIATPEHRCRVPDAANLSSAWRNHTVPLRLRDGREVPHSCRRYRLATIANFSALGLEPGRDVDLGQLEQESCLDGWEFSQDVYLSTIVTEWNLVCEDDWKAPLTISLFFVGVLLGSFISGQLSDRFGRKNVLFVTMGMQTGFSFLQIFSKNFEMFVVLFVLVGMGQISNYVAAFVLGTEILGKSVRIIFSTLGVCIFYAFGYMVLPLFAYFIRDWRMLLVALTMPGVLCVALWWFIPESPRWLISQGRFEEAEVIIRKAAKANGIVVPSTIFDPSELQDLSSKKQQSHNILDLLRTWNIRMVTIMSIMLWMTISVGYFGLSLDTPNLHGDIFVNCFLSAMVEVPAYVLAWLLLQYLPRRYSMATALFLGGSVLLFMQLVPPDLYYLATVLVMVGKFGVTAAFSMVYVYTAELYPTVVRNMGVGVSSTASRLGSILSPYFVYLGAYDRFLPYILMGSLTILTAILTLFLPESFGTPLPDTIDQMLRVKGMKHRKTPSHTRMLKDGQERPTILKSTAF

OAT2 = target: T7, OAT2 (Homo sapiens, UniProt Q9Y694); experiment: as above; type: cell-based
T7 construct: gene SLC22A7; NM_006672, baculovirus-transduced HEK293 cells
T7 sequence (Q9Y694 1-548): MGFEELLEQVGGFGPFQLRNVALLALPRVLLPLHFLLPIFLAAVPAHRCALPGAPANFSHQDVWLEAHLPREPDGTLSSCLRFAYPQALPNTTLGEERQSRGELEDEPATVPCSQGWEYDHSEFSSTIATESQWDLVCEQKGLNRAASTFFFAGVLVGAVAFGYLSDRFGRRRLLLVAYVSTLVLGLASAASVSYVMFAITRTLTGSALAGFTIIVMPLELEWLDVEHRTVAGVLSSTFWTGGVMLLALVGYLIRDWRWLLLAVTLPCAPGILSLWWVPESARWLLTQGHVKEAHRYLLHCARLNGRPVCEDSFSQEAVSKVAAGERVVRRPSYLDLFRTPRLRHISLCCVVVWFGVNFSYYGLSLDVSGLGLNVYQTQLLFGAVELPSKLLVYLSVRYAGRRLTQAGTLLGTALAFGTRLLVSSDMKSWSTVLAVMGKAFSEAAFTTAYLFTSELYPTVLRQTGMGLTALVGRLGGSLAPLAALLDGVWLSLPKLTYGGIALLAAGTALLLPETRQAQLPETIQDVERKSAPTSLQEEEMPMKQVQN

OAT3 [2] = target: T2, OAT3; experiment: inhibition of [3H]-E1S uptake (Ki); LC-MS/MS uptake in OAT3-HEK293 cells (Km […]); type: cell-based
OAT4 = target: T8, OAT4 (Homo sapiens, UniProt Q9NSA0)
T8 construct: gene SLC22A11
T8 sequence (Q9NSA0 whole entry): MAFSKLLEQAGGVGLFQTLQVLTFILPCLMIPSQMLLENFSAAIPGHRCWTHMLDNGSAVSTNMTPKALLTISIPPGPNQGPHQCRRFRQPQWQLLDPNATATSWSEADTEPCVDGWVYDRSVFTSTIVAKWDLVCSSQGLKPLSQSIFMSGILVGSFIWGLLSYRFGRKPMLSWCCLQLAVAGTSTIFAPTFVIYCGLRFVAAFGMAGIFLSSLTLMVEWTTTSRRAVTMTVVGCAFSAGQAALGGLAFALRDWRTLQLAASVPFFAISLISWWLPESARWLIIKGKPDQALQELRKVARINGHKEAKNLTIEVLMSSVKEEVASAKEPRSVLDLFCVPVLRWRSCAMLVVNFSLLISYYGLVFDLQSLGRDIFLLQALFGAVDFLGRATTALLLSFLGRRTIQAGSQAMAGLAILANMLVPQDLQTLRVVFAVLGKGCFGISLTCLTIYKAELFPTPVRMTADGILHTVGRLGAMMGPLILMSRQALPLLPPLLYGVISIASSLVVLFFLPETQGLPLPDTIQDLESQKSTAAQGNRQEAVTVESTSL

## O=c1[nH]c(=O)c2[nH]c(=O)[nH]c2[nH]1 [Urate]
URAT1
  model substrate uptake vs control cells: OAT2, OAT4, PEPT1, PEPT2, URAT1, OCTN1, and OCTN2 all showed a significant transport ratio compared to control cells

## C[C@]12CC[C@@H]3c4ccc(OS(=O)(=O)O)cc4CC[C@H]3[C@@H]1CCC2=O [[^3H]-Estrone sulfate]
OAT3 [1]
  radiolabelled model substrate uptake (20 nM): Transport of [^3H]-E1S by OAT3 was determined in the presence of increasing enalaprilat concentrations

## CN(CC(=O)O)C(=O)CN [[^3H]-Glycyl-sarcosine] (H-Gly-[Sar]-OH)
PEPT1
  radiolabelled model substrate uptake vs control cells: OAT2, OAT4, PEPT1, PEPT2, URAT1, OCTN1, and OCTN2 all showed a significant transport ratio compared to control cells
PEPT2
  radiolabelled model substrate uptake vs control cells: OAT2, OAT4, PEPT1, PEPT2, URAT1, OCTN1, and OCTN2 all showed a significant transport ratio compared to control cells

## C[N+](C)(C)C[C@H](O)CC(=O)[O-] [[^14C]-Carnitine]
OCTN1
  radiolabelled model substrate uptake vs control cells: OAT2, OAT4, PEPT1, PEPT2, URAT1, OCTN1, and OCTN2 all showed a significant transport ratio compared to control cells
OCTN2
  radiolabelled model substrate uptake vs control cells: OAT2, OAT4, PEPT1, PEPT2, URAT1, OCTN1, and OCTN2 all showed a significant transport ratio compared to control cells

## Nc1ccc(C(=O)NCC(=O)O)cc1 [[^14C]-para-aminohippuric acid]
OAT2
  radiolabelled model substrate uptake vs control cells: OAT2, OAT4, PEPT1, PEPT2, URAT1, OCTN1, and OCTN2 all showed a significant transport ratio compared to control cells

## C[C@H](N[C@@H](CCc1ccccc1)C(=O)O)C(=O)N1CCC[C@H]1C(=O)O [enalaprilat]
OAT3 [2]
  Ki: 134 µM
OAT4
  Km: > 1000 µM
